Measurements taken from patent US6503881B2 (priority 1996, dated 2003).
Where two headings read alike, the source gives them in different places.

System: bacterial isolates
Details: for PIC: with Gentamicin

W R I W K P K W R L P K W [MBI 11D18CN]
FIC (Piperacillin + peptide, E. cloacae 10): 0.50
FIC (Piperacillin + peptide, H. influenzae 3): 0.53
FIC (Piperacillin + peptide, H. influenzae SB1): 0.52
FIC (Piperacillin + peptide, P. aeruginosa 23): 0.38
FIC (Piperacillin + peptide, P. aeruginosa 41): 0.56
FIC (Piperacillin + peptide, S. aureus 19 MRSA): 0.38
FIC (Piperacillin + peptide, S. aureus SB2MRSA): 0.50
FIC (Piperacillin + peptide, S. maltophilia 2): 0.50
FIC (Piperacillin + peptide, S. marcescens 1): 0.14
Peptide MIC + Piperacillin (S. aureus 19 MRSA): 1 µg/mL
Peptide MIC Alone (S. aureus 19 MRSA): 4 µg/mL
Piperacillin MIC + Peptide (S. aureus 19 MRSA): 16 µg/mL
Gentamicin MIC + Peptide (S. aureus SA014 MRSA): 2 µg/mL
Peptide MIC + Gentamicin (S. aureus SA014 MRSA): 0.125 µg/mL
Peptide MIC Alone (S. aureus SA014 MRSA (Gentamicin section)): 2 µg/mL
Peptide MIC + Tobramycin (S. aureus SA018 MRSA): 16 µg/mL
Peptide MIC Alone (S. aureus SA018 MRSA): 32 µg/mL
Tobramycin MIC + Peptide (S. aureus SA018 MRSA): 4 µg/mL
Gentamicin MIC + Peptide (S. aureus SA025 MRSA): 1 µg/mL
Peptide MIC + Gentamicin (S. aureus SA025 MRSA): 0.125 µg/mL
Peptide MIC Alone (S. aureus SA025 MRSA (Gentamicin section)): 1 µg/mL
Peptide MIC + Piperacillin (S. aureus SB2MRSA): 0.5 µg/mL
Peptide MIC Alone (S. aureus SB2MRSA): 2 µg/mL
Piperacillin MIC + Peptide (S. aureus SB2MRSA): 32 µg/mL
Gentamicin MIC + Peptide (S. epidermidis SE071): 4 µg/mL
Peptide MIC + Gentamicin (S. epidermidis SE071): 0.125 µg/mL
Peptide MIC Alone (S. epidermidis SE071 (Gentamicin section)): 8 µg/mL
Gentamicin MIC + Peptide (S. epidermidis SE074): 4 µg/mL
Peptide MIC + Gentamicin (S. epidermidis SE074): 0.125 µg/mL
Peptide MIC Alone (S. epidermidis SE074 (Gentamicin section)): 4 µg/mL
Peptide MIC + Tobramycin (S. haemolyticus SHA001): 1 µg/mL
Peptide MIC Alone (S. haemolyticus SHA001): 2 µg/mL
Tobramycin MIC + Peptide (S. haemolyticus SHA001): 0.125 µg/mL
Peptide MIC + Piperacillin (S. maltophilia 2): 8 µg/mL
Peptide MIC Alone (S. maltophilia 2): 32 µg/mL
Piperacillin MIC + Peptide (S. maltophilia 2): 16 µg/mL
Gentamicin MIC + Peptide (S. maltophilia SMA016): 16 µg/mL
Peptide MIC + Gentamicin (S. maltophilia SMA016): 16 µg/mL
Peptide MIC Alone (S. maltophilia SMA016 (Gentamicin section)): 64 µg/mL
Gentamicin MIC + Peptide (S. maltophilia SMA019): 4 µg/mL
Peptide MIC + Gentamicin (S. maltophilia SMA019): 0.5 µg/mL
Peptide MIC Alone (S. maltophilia SMA019 (Gentamicin section)): 8 µg/mL
Peptide MIC + Tobramycin (S. maltophilia SMA027): 16 µg/mL
Peptide MIC Alone (S. maltophilia SMA027): >128 µg/mL
Tobramycin MIC + Peptide (S. maltophilia SMA027): 4 µg/mL
Peptide MIC + Tobramycin (S. maltophilia SMA029): 4 µg/mL
Peptide MIC Alone (S. maltophilia SMA029): 32 µg/mL
Tobramycin MIC + Peptide (S. maltophilia SMA029): 4 µg/mL
Peptide MIC + Piperacillin (S. marcescens 1): 4 µg/mL
Peptide MIC Alone (S. marcescens 1): >128 µg/mL
Piperacillin MIC + Peptide (S. marcescens 1): 8 µg/mL
Mupirocin MIC + Peptide (S. marcescens SBSM1): 100 µg/mL
Peptide MIC + Mupirocin (S. marcescens SBSM1): 16 µg/mL
Peptide MIC Alone (S. marcescens SBSM1 (Mupirocin section)): >128 µg/mL
Mupirocin MIC + Peptide (S. marcescens SBSM2): 100 µg/mL
Peptide MIC + Mupirocin (S. marcescens SBSM2): 64 µg/mL
Peptide MIC Alone (S. marcescens SBSM2 (Mupirocin section)): >128 µg/mL
FIC (Tobramycin + peptide, A. baumannii ABI001): 0.31
FIC (Tobramycin + peptide, A. baumannii ABI002): 0.53
FIC (Tobramycin + peptide, S. aureus SA018 MRSA): 0.56
FIC (Tobramycin + peptide, S. haemolyticus SHA001): 0.53
FIC (Tobramycin + peptide, S. maltophilia SMA027): 0.19
FIC (Tobramycin + peptide, S. maltophilia SMA029): 0.16
FIC (Vancomycin + peptide, E. faecalis EFS001): 0.38
FIC (Vancomycin + peptide, E. faecalis EFS004): 0.50
FIC (Vancomycin + peptide, E. faecalis EFS011): 0.50
FIC (Vancomycin + peptide, E. faecalis EFS012): 0.38
FIC (Vancomycin + peptide, E. faecalis EFS014): 0.16
FIC (Vancomycin + peptide, E. faecium EFM004): 0.50
FIC (Vancomycin + peptide, E. faecium EFM009): 0.52
FIC (Vancomycin + peptide, E. faecium EFM010): 0.28
FIC (Vancomycin + peptide, E. faecium EFM011): 0.50
FIC (with Ciprofloxacin, P. aeruginosa PA24): 0.31
FIC (with Ciprofloxacin, P. aeruginosa PA77): 0.50
PIC (A. baumannii ABI001): 0.27
PIC (A. baumannii ABI002): 0.56
PIC (E. coli ECO006): 0.27
PIC (E. faecalis EFS008): 0.19
PIC (E. faecium EFM004): 0.05
PIC (K. pneumonia KP020): 0.50
PIC (P. aeruginosa PA022): 0.52
PIC (P. aeruginosa PA041): 0.14
PIC (S. aureus SA014 MRSA): 0.13
PIC (S. aureus SA025 MRSA): 0.14
PIC (S. epidermidis SE071): 0.27
PIC (S. epidermidis SE074): 0.09
PIC (S. maltophilia SMA016): 0.38
PIC (S. maltophilia SMA019): 0.19
FIC (with Mupirocin, E. coli SBECO1): 0.36
FIC (with Mupirocin, E. coli SBECO2): 0.06
FIC (with Mupirocin, P. aeruginosa PA4): 0.53
FIC (with Mupirocin, P. aeruginosa SBPA1): 0.35
FIC (with Mupirocin, S. marcescens SBSM1): 0.16
FIC (with Mupirocin, S. marcescens SBSM2): 0.35
